Values quoted from earlier work, collected in US12246026B2, “Ganaxolone for use in treatment of status epilepticus” (Marinus Pharmaceuticals, Inc., priority 2019, dated 2025).

Tested on: patients with super refractory SE
Settings: randomized, double-blind, placebo-controlled Phase 3 trial; cited from earlier work

In the case of `CC(=O)[C@H]1CC[C@H]2[C@@H]3CC[C@H]4C[C@H](O)CC[C@]4(C)[C@H]3CC[C@]12C` [brexanolone], the efficacy over placebo is listed as “failed to show efficacy over placebo”.
